Measured values published in publication PMC6017090, “Design, Synthesis and Biological Evaluation of Novel N-Pyridyl-Hydrazone Derivatives as Potential Monoamine Oxidase (MAO) Inhibitors” (Molecules : A Journal of Synthetic Chemistry and Natural …, 2018).

Key:
human recombinant MAO-B = target: T1, human recombinant MAO-B (Homo sapiens, UniProt P27338); experiment: MAO activity assay (fluorometric, kynuramine substrate), MAO-B; type: biochemical; details: for inhibition at 1000 µM: 10^−3 M; for inhibition at 1000 µM / inhibition at 100 µM: ± S.D.; for inhibition at 100 µM: 10^−4 M
T1 construct: purchased Sigma-Aldrich
T1 sequence (P27338 1-520): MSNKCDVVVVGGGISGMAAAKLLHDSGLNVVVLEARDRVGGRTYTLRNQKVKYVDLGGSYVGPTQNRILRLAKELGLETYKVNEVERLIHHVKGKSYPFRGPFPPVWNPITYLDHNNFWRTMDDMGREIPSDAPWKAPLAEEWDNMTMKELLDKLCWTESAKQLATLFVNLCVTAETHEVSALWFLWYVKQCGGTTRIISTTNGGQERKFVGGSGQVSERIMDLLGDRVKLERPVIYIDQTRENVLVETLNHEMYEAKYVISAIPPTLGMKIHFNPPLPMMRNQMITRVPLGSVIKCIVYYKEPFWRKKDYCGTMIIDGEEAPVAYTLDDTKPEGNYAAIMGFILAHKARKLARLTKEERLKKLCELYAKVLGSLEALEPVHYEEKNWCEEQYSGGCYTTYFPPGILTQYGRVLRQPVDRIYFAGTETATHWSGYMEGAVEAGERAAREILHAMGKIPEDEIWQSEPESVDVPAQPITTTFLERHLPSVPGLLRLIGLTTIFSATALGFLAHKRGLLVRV
Experimental: (§1) The enzyme activity assay was performed in accordance with the procedure reported by Matsumoto et al. with slight modifications. All materials used in the enzymatic assays were purchased from Sigma-Aldrich Chemicals. All pipetting protocols in the assay were performed by the Biotek Precision robotic system (BioTek Instruments, Inc., Winooski, VT, USA). To prevent the effect of light MAO enzymes, the assay was performed in 96-well black plates. Phosphate buffer (0.1 M, pH = 7.4) was used for the preparation of 5 mg/mL stock solutions of the human recombinant MAO-A and MAO-B enzymes. The enzyme stock solutions were further diluted with an assay buffer to obtain final concentrations of 0.006 mg/mL MAO-A and 0.015 mg/mL MAO-B. Kynuramine was dissolved in sterilized distilled water to obtain a 25 mM stock solution and then diluted with the assay buffer to obtain final concentrations of 40 μM for the MAO-A enzyme and 20 μM for the MAO-B enzyme. […] The addition of the diluted compounds was followed by the addition of either the MAO-A or MAO-B enzymes (50 μL/well). […] Fluorescence was read from top by using BioTek-Synergy H1 multimode microplate reader at the excitation/emission wavelengths of 310 and 380 nm.
(§2) The IC50 values (Table 2) were calculated from the plots of enzyme activity against concentrations, and the regression analyses were computed in GraphPad Prism Version 6 (GraphPad Software, Inc., La Jolla, CA, USA).

MAO-A enzyme [1] = target: T2, MAO-A enzyme (Homo sapiens, UniProt P21397); experiment: MAO activity assay (fluorometric, kynuramine substrate), MAO-A; type: biochemical; details: for inhibition at 1000 µM: 10^−3 M; for inhibition at 1000 µM / inhibition at 100 µM: ± S.D.; for inhibition at 100 µM: 10^−4 M; for inhibition at 10 µM: 10^−5 M; for inhibition at 1 µM: 10^−6 M; for inhibition at 0.1 µM: 10^−7 M; for inhibition at 0.01 µM: 10^−8 M; for inhibition at 0.001 µM: 10^−9 M
T2 construct: purchased Sigma-Aldrich
T2 sequence (P21397 1-527): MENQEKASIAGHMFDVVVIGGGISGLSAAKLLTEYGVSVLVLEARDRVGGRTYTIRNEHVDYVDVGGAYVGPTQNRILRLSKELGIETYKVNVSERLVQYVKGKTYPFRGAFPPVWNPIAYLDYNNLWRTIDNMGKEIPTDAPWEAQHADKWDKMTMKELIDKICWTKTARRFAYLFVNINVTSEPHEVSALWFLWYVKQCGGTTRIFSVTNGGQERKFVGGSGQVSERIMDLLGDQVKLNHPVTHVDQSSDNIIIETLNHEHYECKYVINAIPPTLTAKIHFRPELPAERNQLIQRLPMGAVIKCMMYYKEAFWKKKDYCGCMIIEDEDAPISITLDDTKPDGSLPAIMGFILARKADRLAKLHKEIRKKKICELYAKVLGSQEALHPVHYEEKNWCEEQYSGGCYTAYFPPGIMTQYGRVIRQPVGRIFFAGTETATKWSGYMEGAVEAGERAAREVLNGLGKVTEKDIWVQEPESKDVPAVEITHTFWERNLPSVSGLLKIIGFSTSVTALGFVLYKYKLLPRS
Experimental: as §1, with “Phosphate buffer (0.1 M, pH = 7.4) was used for the preparation of 5 mg/mL stock solutions of the human recombinant MAO-A and MAO-B enzymes.” left out
as §2

MAO-A enzyme [2] = target: T2, MAO-A enzyme; experiment: Enzyme kinetic studies (Lineweaver-Burk plots) on MAO-A; type: biochemical
Experimental: The same materials were used for the MAO-inhibition assay. Compound 2j was prepared at the IC50 concentration calculated in the enzyme assay and then added to the wells (100 μL/well). The stock solution (25 mM) of kynuramine in 0.1 M phosphate buffer was diluted to final concentrations of 40, 20, 10, 5, 2.5 and 1.25 μM and then added to the wells (50 μL/well) that contained the test compound. The MAO-A enzyme was added to the plate (50 μL/well), incubated for 20 min at 37 °C, and the plate was read at excitation/emission wavelengths of 310 and 340 nm. The control measurement without the inhibitor was determined simultaneously. The results were analyzed by using Lineweaver-Burk plots in Microsoft Office Excel 2013 (Microsoft Inc., Redmond, WA, USA).
1/V: 1/rate of reaction [1/(nmoles/min/mg protein)], 1/S: 1/substrate concentration (1/µM).

[3] = Cytotoxicity test (MTT assay); details: mouse, NIH/3T3 mouse embryonic fibroblast cells (ATCC CRL-1658)
Experimental: The MTT assay was performed as previously described [21, 22, 23, 24, 25, 26].

Row | inhibition at 1000 µM (human recombinant MAO-B) | inhibition at 100 µM (human recombinant MAO-B) | inhibition at 1000 µM (MAO-A enzyme [1]) | inhibition at 100 µM (MAO-A enzyme [1]) | melting point | IC50 (human recombinant MAO-B) | inhibition at 10 µM (human recombinant MAO-B; 10^−5 M) | inhibition at 1 µM (human recombinant MAO-B; 10^−6 M) | inhibition at 0.1 µM (human recombinant MAO-B; 10^−7 M) | inhibition at 0.01 µM (human recombinant MAO-B; 10^−8 M) | inhibition at 0.001 µM (human recombinant MAO-B; 10^−9 M) | IC50 (MAO-A enzyme [1]) | inhibition at 10 µM (MAO-A enzyme [1]) | inhibition at 1 µM (MAO-A enzyme [1]) | inhibition at 0.1 µM (MAO-A enzyme [1]) | inhibition at 0.01 µM (MAO-A enzyme [1]) | inhibition at 0.001 µM (MAO-A enzyme [1]) | Vmax (MAO-A enzyme [2]; MAO-A, kynuramine substrate, nonlinear regression) | Nature of MAO-A inhibition (Lineweaver–Burk plots) (MAO-A enzyme [2]; compound at IC50 concentration, kynuramine 40-1.25 μM) | SMILES | IC50 [3]
1 | 63.8 ± 1.28% | 52.7 ± 1.29% | 75.7 ± 1.85% | 69.8 ± 1.43% | 158 °C | 9.3 µM | 40.2 ± 1.12% | 31.6 ± 1.08% | 25 ± 0.95% | 21.9 ± 0.82% | 12.5 ± 0.51% | 6.25 µM | 56.1 ± 1.27% | 43.2 ± 1.06% | 38.8 ± 1.07% | 32.7 ± 0.82% | 26.7 ± 0.96% | 1.903 nmol/min/mg protein | mixed type inhibitor | CCOc1ccc([N+](=O)[O-])c(NN=Cc2ccc(O)cc2)n1 [Compound 2j, 4-[(2-(6-Ethoxy-3-nitropyridin-2-yl)hydrazono)methyl]phenol] | > 1000 µM
2 | 51 ± 1.08% | 43 ± 1.06% | 67.8 ± 1.44% | 64.4 ± 1.3% | 155 °C |  |  |  |  |  |  | 10.6 µM | 43 ± 1.02% | 31 ± 0.98% | 27.2 ± 0.89% | 19.8 ± 0.41% | 17.88 ± 0.17% |  |  | CCOc1ccc([N+](=O)[O-])c(NN=Cc2ccco2)n1 [Compound 2l, 6-Ethoxy-2-[2-((furan-2-yl)methylene)hydrazinyl]-3-nitropyridine] | > 1000 µM
3 | 40.9 ± 1.02% | 39.7 ± 1.15% | 76.6 ± 1.38% | 66.1 ± 1.47% | 163 °C |  |  |  |  |  |  | 6.12 µM | 54.7 ± 1.2% | 36.6 ± 1.08% | 33.2 ± 0.92% | 25.2 ± 0.88% | 23 ± 0.89% |  |  | CCOc1ccc([N+](=O)[O-])c(NN=Cc2cccn2C)n1 [Compound 2k, 6-Ethoxy-2-[2-((1-methyl-1H-pyrrol-2-yl)methylene)hydrazinyl]-3-nitropyridine] | > 1000 µM

The remaining lines, values behind:

Row | SMILES | inhibition at 1000 µM (human recombinant MAO-B) | inhibition at 100 µM (human recombinant MAO-B) | inhibition at 1000 µM (MAO-A enzyme [1]) | inhibition at 100 µM (MAO-A enzyme [1]) | melting point | IC50 (human recombinant MAO-B) | inhibition at 10 µM (human recombinant MAO-B; 10^−5 M) | inhibition at 1 µM (human recombinant MAO-B; 10^−6 M) | inhibition at 0.1 µM (human recombinant MAO-B; 10^−7 M) | inhibition at 0.01 µM (human recombinant MAO-B; 10^−8 M) | inhibition at 0.001 µM (human recombinant MAO-B; 10^−9 M) | IC50 (MAO-A enzyme [1]) | inhibition at 10 µM (MAO-A enzyme [1]) | inhibition at 1 µM (MAO-A enzyme [1]) | inhibition at 0.1 µM (MAO-A enzyme [1]) | inhibition at 0.01 µM (MAO-A enzyme [1]) | inhibition at 0.001 µM (MAO-A enzyme [1]) | Vmax (MAO-A enzyme [2]; MAO-A, kynuramine substrate, nonlinear regression) | Nature of MAO-A inhibition (Lineweaver–Burk plots) (MAO-A enzyme [2]; compound at IC50 concentration, kynuramine 40-1.25 μM) | IC50 [3]
4 | CCOc1ccc([N+](=O)[O-])c(NN=Cc2ccc(Cl)cc2)n1 [Compound 2b, 2-[2-(4-Chlorobenzylidene)hydrazinyl]-6-ethoxy-3-nitropyridine] | 0.43 ± 0.02% | 0.11 ± 0.004% | 49 ± 1.22% | 0.46 ± 0.01% | 211 °C |  |  |  |  |  |  |  |  |  |  |  |  |  |  | 
5 | CCOc1ccc([N+](=O)[O-])c(NN=Cc2ccc(C)cc2)n1 [Compound 2d, 6-Ethoxy-2-[2-(4-methylbenzylidene)hydrazinyl]-3-nitropyridine] | 0.52 ± 0.02% | 0.18 ± 0.006% | 20.1 ± 0.41% | 11.4 ± 0.28% | 171 °C |  |  |  |  |  |  |  |  |  |  |  |  |  |  | 
6 | CCOc1ccc([N+](=O)[O-])c(NN=Cc2ccc(C#N)cc2)n1 [Compound 2g, 6-Ethoxy-2-[2-(4-cyanobenzylidene)hydrazinyl]-3-nitropyridine] | 0.67 ± 0.03% | 0.27 ± 0.01% | 25.9 ± 0.87% | 14.4 ± 0.54% | 267 °C |  |  |  |  |  |  |  |  |  |  |  |  |  |  | 
7 | CCOc1ccc([N+](=O)[O-])c(NN=Cc2ccc(N(C)C)cc2)n1 [Compound 2h, 6-Ethoxy-2-[2-(4-dimethylaminobenzylidene)hydrazinyl]-3-nitropyridine] | 86.3 ± 1.25% | 3.52 ± 0.15% | 80.8 ± 1.31% | 16.9 ± 0.49% | 192 °C |  |  |  |  |  |  |  |  |  |  |  |  |  |  | 
